How the values were obtained:
Test in all cases: Test B pre-/postemergence plant response
Assay type in all cases: in vivo
[1] = test system: common ragweed (Ambrosia elation)
Summary of the method: (§1)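 Seeds were sown and sprayed preemergence, while plants at 2 to 18 cm (1- to 4-leaf stage) got postemergence sprays. Compounds were formulated in a non-phytotoxic solvent mixture with surfactant. After 13 to 15 days in a greenhouse, injury was rated visually against untreated controls, 0 (no effect) to 100 (complete control).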

corn (Zea mays) = test system: corn (Zea mays)
Summary of the method: as §1

[2] = test system: Russian thistle (Salsola iberica); settings: Preemergence
Summary of the method: as §1

[3] = test system: yellow nutsedge (Cyperus esculentus)
Summary of the method: as §1

kochia (Kochia scoparia) = test system: kochia (Kochia scoparia)
Summary of the method: as §1

[4] = test system: giant foxtail (Setaria faberii)
Summary of the method: as §1

[5] = test system: common (oilseed) sunflower (Helianthus annuus); settings: Preemergence
Summary of the method: as §1

[6] = test system: johnsongrass (Sorghum halepense)
Summary of the method: as §1

[7] = test system: green foxtail (Setaria viridis)
Summary of the method: as §1

[8] = test system: goosegrass (Eleusine indica)
Summary of the method: as §1

[9] = test system: eastern black (E.B.) nightshade (Solanum ptycanthum); settings: Preemergence; for Nightshade, E. B. plant response rating: scale 0 to 100
Summary of the method: as §1

[10] = test system: surinam grass (Brachiaria decumbens)
Summary of the method: as §1

[11] = test system: Italian ryegrass (Lolium multiflorum)
Summary of the method: as §1

[12] = test system: pigweed (Amaranthus retroflexus)
Summary of the method: as §1

[13] = 8 g ai/ha, postemergence, 0-100 scale
[14] = Postemergence, 16 g ai/ha, scale 0 to 100
[15] = Postemergence, 31 g ai/ha, scale 0 to 100, 0 no effect, 100 complete control
[16] = Postemergence, 62 g ai/ha, scale 0 to 100
[17] = Preemergence, 16 g ai/ha, scale 0 to 100 (0 no effect, 100 complete control)
[18] = Preemergence, 31 g ai/ha, 0 to 100 scale, 0 no effect, 100 complete control
[19] = Preemergence, 62 g ai/ha, scale 0 to 100
[20] = Preemergence, 8 g ai/ha, scale 0 to 100
[21] = 16 g ai/ha, scale 0 to 100 (0 no effect, 100 complete control)
[22] = 31 g ai/ha, 0 to 100 scale, 0 no effect, 100 complete control
[23] = 16 g ai/ha, postemergence, 0-100 scale
[24] = Postemergence, 31 g ai/ha, scale 0 to 100
[25] = Postemergence, 62 g ai/ha, scale 0 to 100, 0 no effect, 100 complete control
[26] = Preemergence, 31 g ai/ha, scale 0 to 100 (0 no effect, 100 complete control)
[27] = Preemergence, 62 g ai/ha, 0 to 100 scale, 0 no effect, 100 complete control
[28] = Preemergence, 16 g ai/ha, scale 0 to 100
[29] = 31 g ai/ha, scale 0 to 100 (0 no effect, 100 complete control)
[30] = 62 g ai/ha, 0 to 100 scale, 0 no effect, 100 complete control

CCc1cc(-c2ccc(Cl)cc2)nn1-c1c(O)cnn(C)c1=O [Compound 21]
10: Goosegrass plant response rating [8, 20]
95: Plant response rating, Corn (corn (Zea mays); [18]) | Foxtail, Green plant response rating [7, 13] | Plant response rating, Goosegrass [8, 15] | Plant response rating, Goosegrass [8, 18]
0: Ragweed plant response rating [1, 13] | Plant response rating, Ragweed [1, 14] | Plant response rating, Ragweed [1, 15] | Plant response rating, Ragweed [1, 16] | Plant response rating, Ragweed [1, 17] | Plant response rating, Ragweed [1, 18] | Plant response rating, Ragweed [1, 19] | Ragweed plant response rating [1, 20] | Plant response rating, Russian Thistle [2, 21] | Plant response rating, Russian Thistle [2, 22] | Plant response rating, Russian Thistle ([2]; 62 g ai/ha, scale 0 to 100) | Russian Thistle plant response rating ([2]; 8 g ai/ha, scale 0 to 100) | Nutsedge, Yellow plant response rating [3, 13] | Plant response rating, Nutsedge, Yellow [3, 14] | Plant response rating, Nutsedge, Yellow [3, 15] | Plant response rating, Nutsedge, Yellow [3, 16] | Plant response rating, Nutsedge, Yellow [3, 17] | Plant response rating, Nutsedge, Yellow [3, 18] | Plant response rating, Nutsedge, Yellow [3, 19] | Kochia plant response rating (kochia (Kochia scoparia); [13]) | Plant response rating, Kochia (kochia (Kochia scoparia); [14]) | Plant response rating, Kochia (kochia (Kochia scoparia); [15]) | Plant response rating, Kochia (kochia (Kochia scoparia); [16]) | Plant response rating, Kochia (kochia (Kochia scoparia); [17]) | Plant response rating, Kochia (kochia (Kochia scoparia); [18]) | Plant response rating, Kochia (kochia (Kochia scoparia); [19]) | Kochia plant response rating (kochia (Kochia scoparia); [20]) | Plant response rating, Sunflower [5, 21] | Plant response rating, Sunflower [5, 22] | Plant response rating, Sunflower ([5]; 62 g ai/ha, scale 0 to 100) | Johnsongrass plant response rating [6, 20] | Plant response rating, Nightshade, E. B. [9, 21] | Plant response rating, Nightshade, E. B. [9, 22] | Nightshade, E. B. plant response rating ([9]; 8 g ai/ha) | Pigweed plant response rating [12, 13] | Plant response rating, Pigweed [12, 14] | Plant response rating, Pigweed [12, 15] | Plant response rating, Pigweed [12, 16] | Plant response rating, Pigweed [12, 17] | Plant response rating, Pigweed [12, 18] | Plant response rating, Pigweed [12, 19] | Pigweed plant response rating [12, 20]
80: Plant response rating, Corn (corn (Zea mays); [17]) | Plant response rating, Goosegrass [8, 14] | Plant response rating, Goosegrass [8, 17]
98: Plant response rating, Corn (corn (Zea mays); [19]) | Foxtail, Giant plant response rating [4, 13] | Surinam Grass plant response rating [10, 20] | Ryegrass, Italian plant response rating [11, 13]
100: Plant response rating, Corn (corn (Zea mays); [14]) | Plant response rating, Corn (corn (Zea mays); [15]) | Plant response rating, Corn (corn (Zea mays); [16]) | Plant response rating, Foxtail, Giant [4, 14] | Plant response rating, Foxtail, Giant [4, 15] | Plant response rating, Foxtail, Giant [4, 16] | Plant response rating, Foxtail, Giant [4, 17] | Plant response rating, Foxtail, Giant [4, 18] | Plant response rating, Foxtail, Giant [4, 19] | Plant response rating, Johnsongrass [6, 16] | Plant response rating, Johnsongrass [6, 19] | Plant response rating, Foxtail, Green [7, 14] | Plant response rating, Foxtail, Green [7, 15] | Plant response rating, Foxtail, Green [7, 16] | Plant response rating, Foxtail, Green [7, 17] | Plant response rating, Foxtail, Green [7, 18] | Plant response rating, Foxtail, Green [7, 19] | Foxtail, Green plant response rating [7, 20] | Plant response rating, Goosegrass [8, 16] | Plant response rating, Goosegrass [8, 19] | Surinam Grass plant response rating [10, 13] | Plant response rating, Surinam Grass [10, 14] | Plant response rating, Surinam Grass [10, 15] | Plant response rating, Surinam Grass [10, 16] | Plant response rating, Surinam Grass [10, 17] | Plant response rating, Surinam Grass [10, 19] | Plant response rating, Ryegrass, Italian [11, 14] | Plant response rating, Ryegrass, Italian [11, 15] | Plant response rating, Ryegrass, Italian [11, 16] | Plant response rating, Ryegrass, Italian [11, 17] | Plant response rating, Ryegrass, Italian [11, 19]
50: Corn plant response rating (corn (Zea mays); [13])
65: Goosegrass plant response rating [8, 13]
70: Corn plant response rating (corn (Zea mays); [20])
90: Plant response rating, Johnsongrass [6, 14] | Plant response rating, Johnsongrass [6, 15] | Plant response rating, Johnsongrass [6, 18] | Ryegrass, Italian plant response rating [11, 20]
60: Johnsongrass plant response rating [6, 13]
85: Foxtail, Giant plant response rating [4, 20] | Plant response rating, Johnsongrass [6, 17]

CCc1cc(-c2ccc(Br)cc2)nn1-c1c(O)c(C)nn(C)c1=O [Compound 74]
65: Goosegrass plant response rating [8, 23] | Plant response rating, Nightshade, E. B. [9, 30]
70: Johnsongrass plant response rating [6, 20]
0: Ragweed plant response rating [1, 13] | Ragweed plant response rating [1, 23] | Plant response rating, Ragweed [1, 24] | Plant response rating, Ragweed [1, 25] | Plant response rating, Ragweed [1, 26] | Plant response rating, Ragweed [1, 27] | Ragweed plant response rating [1, 20] | Ragweed plant response rating [1, 28] | Plant response rating, Russian Thistle [2, 29] | Plant response rating, Russian Thistle [2, 30] | Russian Thistle plant response rating ([2]; 8 g ai/ha, scale 0 to 100) | Russian Thistle plant response rating ([2]; 16 g ai/ha, scale 0 to 100) | Nutsedge, Yellow plant response rating [3, 13] | Nutsedge, Yellow plant response rating [3, 23] | Plant response rating, Nutsedge, Yellow [3, 24] | Plant response rating, Nutsedge, Yellow [3, 25] | Plant response rating, Nutsedge, Yellow [3, 26] | Plant response rating, Nutsedge, Yellow [3, 27] | Nutsedge, Yellow plant response rating [3, 20] | Nutsedge, Yellow plant response rating [3, 28] | Kochia plant response rating (kochia (Kochia scoparia); [13]) | Kochia plant response rating (kochia (Kochia scoparia); [23]) | Plant response rating, Kochia (kochia (Kochia scoparia); [24]) | Plant response rating, Kochia (kochia (Kochia scoparia); [25]) | Plant response rating, Sunflower [5, 29] | Plant response rating, Sunflower [5, 30] | Sunflower plant response rating ([5]; 8 g ai/ha, scale 0 to 100) | Sunflower plant response rating ([5]; 16 g ai/ha, scale 0 to 100) | Plant response rating, Nightshade, E. B. [9, 29] | Nightshade, E. B. plant response rating ([9]; 8 g ai/ha) | Nightshade, E. B. plant response rating ([9]; 16 g ai/ha) | Pigweed plant response rating [12, 13] | Pigweed plant response rating [12, 23] | Plant response rating, Pigweed [12, 24] | Plant response rating, Pigweed [12, 25] | Plant response rating, Pigweed [12, 26] | Pigweed plant response rating [12, 20] | Pigweed plant response rating [12, 28]
85: Plant response rating, Foxtail, Giant [4, 14] | Johnsongrass plant response rating [6, 28] | Foxtail, Green plant response rating [7, 13] | Plant response rating, Goosegrass [8, 25] | Surinam Grass plant response rating [10, 13]
75: Corn plant response rating (corn (Zea mays); [20]) | Plant response rating, Goosegrass [8, 24]
60: Goosegrass plant response rating [8, 13] | Ryegrass, Italian plant response rating [11, 20]
90: Plant response rating, Corn (corn (Zea mays); [26]) | Plant response rating, Johnsongrass [6, 26]
100: Plant response rating, Corn (corn (Zea mays); [14]) | Plant response rating, Corn (corn (Zea mays); [24]) | Plant response rating, Corn (corn (Zea mays); [25]) | Plant response rating, Foxtail, Giant [4, 26] | Plant response rating, Foxtail, Giant [4, 27] | Plant response rating, Johnsongrass [6, 24] | Plant response rating, Johnsongrass [6, 25] | Plant response rating, Johnsongrass [6, 27] | Plant response rating, Foxtail, Green [7, 25] | Plant response rating, Foxtail, Green [7, 26] | Plant response rating, Foxtail, Green [7, 27] | Foxtail, Green plant response rating [7, 20] | Foxtail, Green plant response rating [7, 28] | Plant response rating, Goosegrass [8, 26] | Plant response rating, Goosegrass [8, 27] | Surinam Grass plant response rating [10, 23] | Plant response rating, Surinam Grass [10, 24] | Plant response rating, Surinam Grass [10, 25] | Plant response rating, Surinam Grass [10, 26] | Plant response rating, Surinam Grass [10, 27] | Surinam Grass plant response rating [10, 20] | Surinam Grass plant response rating [10, 28] | Ryegrass, Italian plant response rating [11, 23] | Plant response rating, Ryegrass, Italian [11, 24] | Plant response rating, Ryegrass, Italian [11, 25] | Plant response rating, Ryegrass, Italian [11, 26] | Plant response rating, Ryegrass, Italian [11, 27]
80: Corn plant response rating (corn (Zea mays); [28]) | Foxtail, Giant plant response rating [4, 13] | Foxtail, Giant plant response rating [4, 20]
20: Plant response rating, Pigweed [12, 27]
95: Plant response rating, Foxtail, Giant [4, 24] | Plant response rating, Foxtail, Green [7, 14] | Goosegrass plant response rating [8, 20]
98: Corn plant response rating (corn (Zea mays); [13]) | Plant response rating, Corn (corn (Zea mays); [27]) | Plant response rating, Foxtail, Giant [4, 25] | Foxtail, Giant plant response rating [4, 28] | Johnsongrass plant response rating [6, 13] | Johnsongrass plant response rating [6, 23] | Plant response rating, Foxtail, Green [7, 24] | Goosegrass plant response rating [8, 28] | Ryegrass, Italian plant response rating [11, 13] | Ryegrass, Italian plant response rating [11, 28]
